# Laboratory results taken from ChEMBL document CHEMBL4425182, “Trypsin inhibitors for the treatment of pancreatitis” (Bioorg Med Chem Lett, 2016).
# Columns and labels:
# [1] = biological target: Serine protease 1 (Homo sapiens, UniProt P07477); assay: Inhibition of human PRSS1 assessed as enzymatic cleavage of Benzoyl-GlyPro-Arg'Rh110-gammaGlu-OH by fluorescence analysis
# [2] = biological target: Voltage-gated inwardly rectifying potassium channel KCNH2 (Homo sapiens, UniProt Q12809); assay: Displacement of [3H]-dofetilide from human ERG expressed in HEK293 cells measured after 90 mins by scintillation proximity assay; assay type: cell-based
# Chain of Voltage-gated inwardly rectifying potassium channel KCNH2 (Q12809 whole entry): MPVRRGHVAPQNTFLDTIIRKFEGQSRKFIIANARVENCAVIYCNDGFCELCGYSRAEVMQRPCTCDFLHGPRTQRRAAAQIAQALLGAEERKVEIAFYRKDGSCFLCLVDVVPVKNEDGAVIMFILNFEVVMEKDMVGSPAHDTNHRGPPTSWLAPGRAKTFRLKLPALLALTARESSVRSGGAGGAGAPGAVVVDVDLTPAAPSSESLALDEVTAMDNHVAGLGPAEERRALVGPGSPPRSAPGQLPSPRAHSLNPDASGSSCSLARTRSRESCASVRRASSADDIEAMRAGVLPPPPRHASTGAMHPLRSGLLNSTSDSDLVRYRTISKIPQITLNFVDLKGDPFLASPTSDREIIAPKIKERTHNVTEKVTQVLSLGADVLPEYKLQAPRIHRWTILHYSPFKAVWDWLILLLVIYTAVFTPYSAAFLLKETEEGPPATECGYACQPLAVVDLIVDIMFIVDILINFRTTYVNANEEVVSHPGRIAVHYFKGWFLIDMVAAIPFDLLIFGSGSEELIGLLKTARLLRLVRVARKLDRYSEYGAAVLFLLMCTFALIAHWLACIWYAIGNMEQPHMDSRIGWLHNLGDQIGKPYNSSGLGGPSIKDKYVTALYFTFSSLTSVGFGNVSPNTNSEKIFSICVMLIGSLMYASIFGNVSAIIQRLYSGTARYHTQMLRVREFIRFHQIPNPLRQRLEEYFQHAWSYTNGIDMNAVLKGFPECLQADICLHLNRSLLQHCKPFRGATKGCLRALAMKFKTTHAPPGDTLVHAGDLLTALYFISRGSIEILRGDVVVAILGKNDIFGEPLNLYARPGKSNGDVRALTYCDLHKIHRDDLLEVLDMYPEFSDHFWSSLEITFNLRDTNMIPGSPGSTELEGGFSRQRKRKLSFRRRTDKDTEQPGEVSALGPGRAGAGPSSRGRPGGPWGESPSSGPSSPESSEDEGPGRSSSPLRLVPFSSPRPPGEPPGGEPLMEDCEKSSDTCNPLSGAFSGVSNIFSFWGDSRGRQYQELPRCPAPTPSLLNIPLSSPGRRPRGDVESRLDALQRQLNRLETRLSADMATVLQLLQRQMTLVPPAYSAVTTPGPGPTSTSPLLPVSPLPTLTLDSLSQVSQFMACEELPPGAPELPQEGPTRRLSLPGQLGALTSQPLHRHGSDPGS
# [3] = Solubility of the compound at pH 6.8; assay type: physicochemical; conditions: buffer
# [4] = biological target: Coagulation factor X (Homo sapiens, UniProt P00742); assay: Inhibition of human f10a
# Chain of Coagulation factor X (P00742 41-179 limits assumed): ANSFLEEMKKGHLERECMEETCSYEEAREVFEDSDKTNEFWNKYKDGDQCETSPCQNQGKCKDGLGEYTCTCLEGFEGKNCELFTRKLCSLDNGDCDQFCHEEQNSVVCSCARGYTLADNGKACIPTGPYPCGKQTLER
# Chain of Coagulation factor X (P00742 235-488 limits assumed): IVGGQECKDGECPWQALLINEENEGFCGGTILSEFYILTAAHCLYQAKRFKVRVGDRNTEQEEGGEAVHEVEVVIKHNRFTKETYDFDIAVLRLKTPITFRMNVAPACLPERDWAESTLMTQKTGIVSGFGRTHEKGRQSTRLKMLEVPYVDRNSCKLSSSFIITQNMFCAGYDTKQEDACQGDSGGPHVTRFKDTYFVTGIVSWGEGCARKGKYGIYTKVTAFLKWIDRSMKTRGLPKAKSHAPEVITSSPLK
# [5] = Dissociation constant, pKa of the compound; assay type: physicochemical
# [6] = Lipophilicity, log P of the compound; assay type: physicochemical; conditions: octanol/water
# [7] = biological target: T1, Neutrophil elastase (Homo sapiens, UniProt P08246); assay: Inhibition of human neutrophil elastase
# T1 sequence (P08246 whole entry): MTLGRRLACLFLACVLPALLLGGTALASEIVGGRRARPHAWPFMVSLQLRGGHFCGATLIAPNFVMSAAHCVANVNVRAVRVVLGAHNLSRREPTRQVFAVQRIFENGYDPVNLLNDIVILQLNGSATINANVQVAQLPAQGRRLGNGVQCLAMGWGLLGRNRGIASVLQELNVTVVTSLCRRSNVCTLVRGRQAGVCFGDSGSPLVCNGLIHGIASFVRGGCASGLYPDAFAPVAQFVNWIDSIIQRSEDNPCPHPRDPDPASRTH
# [8] = biological target: Chymotrypsin (Homo sapiens, UniProt Q99895+P17538+P40313+Q6GPI1); assay: Inhibition of human chymotrypsin; assay type: protein assay
# [9] = biological target: Prothrombin (Homo sapiens, UniProt P00734); assay: Inhibition of human thrombin
# [10] = Clearance in Sprague-Dawley rat at 1 mg/kg, iv; assay type: ADME, organism-based; conditions: in vivo
# [11] = AUC (0 to 24 hrs) in Sprague-Dawley rat at 1 mg/kg, iv; assay type: ADME, organism-based; set-up: time < 24 hr, dose 1 mg/kg, route intravenous; conditions: in vivo
# Chain of Serine protease 1 (P07477 whole entry): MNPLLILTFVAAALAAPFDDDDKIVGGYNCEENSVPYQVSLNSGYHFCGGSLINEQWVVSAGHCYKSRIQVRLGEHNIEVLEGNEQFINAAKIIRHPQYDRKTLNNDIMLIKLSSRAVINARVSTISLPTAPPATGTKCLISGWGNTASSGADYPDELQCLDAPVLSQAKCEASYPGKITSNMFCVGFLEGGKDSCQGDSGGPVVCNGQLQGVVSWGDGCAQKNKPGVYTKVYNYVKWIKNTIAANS
SMILES,IC50 [1] [µM],IC50 [2] [µM],also measured
COc1cc(C(=O)N2C[C@@H](n3cc(C4CC4)nn3)C[C@H]2C(=O)NCCc2ccccc2)ccc1CN,0.16,,
CNC(=O)[C@@H]1C[C@H](N2CCc3c(cccc3OCCC3CC3)C2)CN1C(=O)c1ccc(CN)c(OC)c1,0.002,11,
NCc1ccc(C(=O)N2C[C@@H](n3cc(C4CC4)nn3)C[C@H]2C(=O)NCC(c2ccccc2)c2ccccc2)cc1,0.11,0.5,solubility [3]: > 1000 µM; IC50 [4]: 71 µM; pKa [5]: 8.5; logP [6]: 3; IC50 [7]: > 100 µM; IC50 [8]: > 100 µM; IC50 [9]: 94 µM
CNC(=O)[C@@H]1C[C@H](N2CCc3c(cccc3OCCOC)C2)CN1C(=O)c1ccc(CN)c(OC)c1,0.008,> 30,clearance [10]: 9 mL/min/kg; AUC(0-t) at 24 h [11]: 3.88 µM·h; solubility [3]: > 1000 µM; IC50 [4]: > 100 µM; IC50 [7]: > 100 µM; IC50 [8]: > 100 µM; IC50 [9]: > 100 µM
CNC(=O)[C@@H]1C[C@H](N2CCc3c(ncnc3OCCC3CC3)C2)CN1C(=O)c1ccc(CN)c(OC)c1,0.006,> 30,
CNC(=O)[C@@H]1C[C@H](N2CCc3c(ncnc3OCCc3ccccc3)C2)CN1C(=O)c1ccc(CN)c(OC)c1,0.005,> 30,
COc1cc(C(=O)N2C[C@@H](n3cc(C4CC4)nn3)C[C@H]2C(=O)N[C@H]2CCCC[C@@H]2c2ccccc2)ccc1CN,0.019,,IC50 [4]: 72 µM; IC50 [7]: > 100 µM; IC50 [8]: > 100 µM; IC50 [9]: 54 µM
CNC(=O)[C@@H]1C[C@H](n2cc(C3CC3)nn2)CN1C(=O)c1ccc(CN)c(OC)c1,2.1,> 30,
NCc1ccc(C(=O)N2C[C@@H](n3cc(C4CC4)nn3)C[C@H]2C(=O)NCC(c2ccccc2)c2ccccc2)cc1F,31,,pKa [5]: 6.2
COc1cc(C(=O)N2C[C@@H](n3cc(C4CC4)nn3)C[C@H]2C(=O)N2CC[C@@H](c3ccccc3)C2)ccc1CN,0.33,,

# Further lines, with some results ahead:
IC50 [1] [µM],SMILES,IC50 [2] [µM],also measured
0.49,CNC(=O)[C@@H]1C[C@H](N2CCc3ccccc3C2)CN1C(=O)c1ccc(CN)c(OC)c1,> 30,
0.96,COc1cc(C(=O)N2C[C@@H](n3cc(C4CC4)nn3)C[C@H]2C(=O)N[C@H]2C[C@@H]2c2ccccc2)ccc1CN,,
0.1,CNC(=O)[C@@H]1C[C@H](N2CCc3c(cccc3OC)C2)CN1C(=O)c1ccc(CN)c(OC)c1,> 30,
0.003,CNC(=O)[C@@H]1C[C@H](N2CCc3c(cccc3OCCc3ccccc3)C2)CN1C(=O)c1ccc(CN)c(OC)c1,4,
0.11,Cc1cc(C(=O)N2C[C@@H](n3cc(C4CC4)nn3)C[C@H]2C(=O)NCC(c2ccccc2)c2ccccc2)ccc1CN,,pKa [5]: 8.7
0.22,COc1cc(C(=O)N2C[C@@H](n3cc(C4CC4)nn3)C[C@H]2C(=O)N2CC[C@H](c3ccccc3)C2)ccc1CN,14,
0.011 to 0.014,COc1cc(C(=O)N2C[C@@H](n3cc(C4CC4)nn3)C[C@H]2C(=O)NCC(c2ccccc2)c2ccccc2)ccc1CN,2.4,clearance [10]: 33 mL/min/kg; AUC(0-t) at 24 h [11]: 1.03 µM·h; solubility [3]: > 1000 µM; IC50 [4]: 31 µM; pKa [5]: 9.2; IC50 [7]: 55 µM; IC50 [8]: 15 µM; IC50 [9]: 27 µM
0.11,COc1cc(C(=O)N2C[C@@H](n3cc(C4CC4)nn3)C[C@H]2C(=O)N[C@@H]2C[C@H]2c2ccccc2)ccc1CN,22,
